Measurements from paper PMC11277991, “Tunicamycins from Marine-Derived Streptomyces bacillaris Inhibit MurNAc-Pentapeptide Translocase in Staphylococcus aureus” (Marine Drugs, 2024).

Each compound was assayed against T1, MurNAc-pentapeptide translocase (MraY) (Staphylococcus aureus, UniProt Q2FZ93) (assay: UMP-Glo luminescence glycosyltransferase assay with purified MraY).
T1 construct: recombinant His6-tagged MraY from S. aureus ATCC6538p (ca. 36 kDa), expressed in E. coli BL21(DE3)
Assay type: biochemical

T1 sequence (Q2FZ93 whole entry): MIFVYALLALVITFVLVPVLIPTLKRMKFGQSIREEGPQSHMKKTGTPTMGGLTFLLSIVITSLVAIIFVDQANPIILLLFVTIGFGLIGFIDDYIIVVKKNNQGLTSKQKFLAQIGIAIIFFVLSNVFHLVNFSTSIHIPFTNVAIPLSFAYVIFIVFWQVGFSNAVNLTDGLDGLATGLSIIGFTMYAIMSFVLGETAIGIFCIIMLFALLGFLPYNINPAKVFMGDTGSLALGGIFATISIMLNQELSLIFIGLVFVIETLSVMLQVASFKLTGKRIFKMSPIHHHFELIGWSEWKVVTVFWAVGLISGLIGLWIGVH

Going from CC(=O)N[C@H]1[C@@H](O[C@@H]2O[C@H](C[C@@H](O)[C@H]3O[C@@H](n4ccc(=O)[nH]c4=O)[C@H](O)[C@@H]3O)[C@H](O)[C@H](O)[C@H]2NC(=O)/C=C/CCCCCCCCCCC(C)C)O[C@H](CO)[C@@H](O)[C@@H]1O [compound 1, tunicamycin VII] to CCC(C)CCCCCCCCCC/C=C/C(=O)N[C@H]1[C@H](O[C@H]2O[C@H](CO)[C@@H](O)[C@H](O)[C@H]2NC(C)=O)O[C@H](C[C@@H](O)[C@H]2O[C@@H](n3ccc(=O)[nH]c3=O)[C@H](O)[C@@H]2O)[C@H](O)[C@@H]1O (stereo partly shown) [compound 3, corynetoxin U17a], the IC50 falls from 142 nM to 93.1 nM (1.5-fold).

Going from CCCCCCCCCCCCC/C=C/C(=O)N[C@H]1[C@H](O[C@H]2O[C@H](CO)[C@@H](O)[C@H](O)[C@H]2NC(C)=O)O[C@H](C[C@@H](O)[C@H]2O[C@@H](n3ccc(=O)[nH]c3=O)[C@H](O)[C@@H]2O)[C@H](O)[C@@H]1O [compound 2, tunicamycin VIII] to CCCCCCCCCCCCCC/C=C/C(=O)N[C@H]1[C@H](O[C@H]2O[C@H](CO)[C@@H](O)[C@H](O)[C@H]2NC(C)=O)O[C@H](C[C@@H](O)[C@H]2O[C@@H](n3ccc(=O)[nH]c3=O)[C@H](O)[C@@H]2O)[C@H](O)[C@@H]1O [compound 4, tunicamycin IX], the IC50 rises from 154 nM to 244 nM (1.6-fold).
